This is an account of results in patent publication US8461328B2, “Tricyclic heterocyclic compounds, compositions and methods of use thereof” (Genentech, Inc., priority 2010, dated 2013).

Type in all cases: biochemical
Test [1] has as its target T1, JAK3 (Homo sapiens, UniProt P52333).
T1 construct: made in house; host or cells: SF9 insect cells (baculovirus)
Nature of the test: JAK3 inhibition (Table 4). To be noted: read-out: JAK3 Ki.

In test [2] the target is T2, TYK2 (Homo sapiens, UniProt P29597).
T2 construct: made in house; host or cells: SF9 insect cells (baculovirus)
T2 sequence (P29597 873-1187): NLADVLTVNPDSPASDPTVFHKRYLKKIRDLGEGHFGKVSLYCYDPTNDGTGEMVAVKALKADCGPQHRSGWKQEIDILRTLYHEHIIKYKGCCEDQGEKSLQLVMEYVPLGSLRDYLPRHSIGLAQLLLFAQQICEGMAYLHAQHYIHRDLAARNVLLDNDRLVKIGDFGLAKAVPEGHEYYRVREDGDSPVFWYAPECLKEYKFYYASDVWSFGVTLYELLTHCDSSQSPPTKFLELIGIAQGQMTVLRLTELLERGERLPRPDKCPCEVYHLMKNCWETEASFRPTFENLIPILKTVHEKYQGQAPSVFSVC
In words: TYK2 inhibition (Table 4).

Test [3] concerns the target T3, JAK1 (Homo sapiens, UniProt P23458).
T3 construct: made in house; host or cells: SF9 insect cells (baculovirus)
Nature of the test: JAK1 inhibition (Table 4). To be noted: read-out: JAK1 Ki.

In test [4] the target is T4, JAK2 (Homo sapiens, UniProt O60674).
T4 construct: made in house; host or cells: SF9 insect cells (baculovirus)
In words: JAK2 inhibition (Table 4). To be noted: read-out: JAK2 Ki.

T1 sequence (P52333 783-1124): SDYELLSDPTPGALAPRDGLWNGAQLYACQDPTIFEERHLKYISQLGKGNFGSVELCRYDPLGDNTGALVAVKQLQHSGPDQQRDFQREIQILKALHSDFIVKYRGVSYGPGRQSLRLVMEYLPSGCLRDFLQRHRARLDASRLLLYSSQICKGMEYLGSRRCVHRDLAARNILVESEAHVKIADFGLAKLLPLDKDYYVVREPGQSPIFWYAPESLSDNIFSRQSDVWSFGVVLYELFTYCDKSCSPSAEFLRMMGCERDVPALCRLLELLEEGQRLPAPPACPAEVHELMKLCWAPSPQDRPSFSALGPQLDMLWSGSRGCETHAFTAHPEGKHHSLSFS
T3 sequence (P23458 852-1154): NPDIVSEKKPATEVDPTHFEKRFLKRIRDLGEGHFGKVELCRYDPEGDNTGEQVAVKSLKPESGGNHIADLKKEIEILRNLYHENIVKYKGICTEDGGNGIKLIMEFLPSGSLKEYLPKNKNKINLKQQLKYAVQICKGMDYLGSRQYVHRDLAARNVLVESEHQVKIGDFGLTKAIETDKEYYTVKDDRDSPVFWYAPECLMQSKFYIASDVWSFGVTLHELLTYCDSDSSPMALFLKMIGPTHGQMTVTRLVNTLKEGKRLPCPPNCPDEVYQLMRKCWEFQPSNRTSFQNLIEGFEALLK
T4 sequence (O60674 812-1132): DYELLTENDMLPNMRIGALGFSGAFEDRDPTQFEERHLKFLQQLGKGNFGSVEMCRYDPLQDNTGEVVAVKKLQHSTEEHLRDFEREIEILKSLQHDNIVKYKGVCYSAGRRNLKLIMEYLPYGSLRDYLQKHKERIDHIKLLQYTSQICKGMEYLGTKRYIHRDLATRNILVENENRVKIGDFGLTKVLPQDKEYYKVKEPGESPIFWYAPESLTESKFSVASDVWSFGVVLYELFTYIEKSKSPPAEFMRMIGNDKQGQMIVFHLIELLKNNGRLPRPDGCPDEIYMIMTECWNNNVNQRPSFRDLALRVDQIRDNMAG

Consider `O=C(Cc1nc2cnc3[nH]ccc3c2n1C1CCN(Cc2ccccc2)CC1)N1CC(F)(F)C1` [Example 259, 2-[1-(1-Benzyl-piperidin-4-yl)-1,6-dihydro-1,3,5,6-tetraaza-as-indacen-2-yl)-1-(3,3-difluoro-azetidin-1-yl)-ethanone], for which the Ki in test [1] turned out to be 11.7 nM; in test [2], 1850 nM; in test [3], 27.8 nM; in test [4], 95.3 nM.

As for `N#CCCN1CCC(n2c(CF)nc3cnc4[nH]ccc4c32)CC1` [Example 530, 3-[4-(2-Fluoromethyl-6H-1,3,5,6-tetraaza-as-indacen-1-yl)-piperidin-1-yl]-propionitrile], the inhibition constant Ki in test [1] was determined as 3 nM; in test [2], 5.61 nM; in test [3], 0.66 nM; in test [4], 1.45 nM.

With `Cc1nc2cnc3[nH]ccc3c2n1[C@@H]1CCCN(C(=O)CC#N)C1` [Example 272], the inhibition constant (Ki) was found to be 3.14 nM in test [1], 4.71 nM in test [2], 0.5 nM in test [3] and 1.35 nM in test [4].

As to `C[C@@H](O)c1nc2cnc3[nH]ccc3c2n1C1CCC(CCS(C)(=O)=O)CC1` (stereo partly drawn) [Example 778, (R)-1-{1-[4-(2-methanesulfonyl-ethyl)-cyclohexyl]-1,6-dihydro-1,3,5,6-tetraaza-as-indacen-2-yl}-ethanol], the Ki turned out to be 42.4 nM in test [1], 6.89 nM in test [2], 0.65 nM in test [3] and 13.2 nM in test [4].

On to `O=C(N[C@H]1CC[C@H](n2cnc3cnc4[nH]ccc4c32)CC1)OC1CCNCC1` [Example 141, Trans[4-(6H-1,2,3,5,6-Tetraaza-as-indacen-1-yl)-cyclohexyl]-carbamic acid piperidin-4-yl ester], for which the inhibitory constant (Ki) in test [1] was found to be 393 nM; in test [2], 330 nM; in test [3], 8.44 nM; in test [4] it was 23.7 nM.

With `C[C@@H](O)c1nc2cnc3[nH]ccc3c2n1[C@H]1CC[C@@H](N2CCC(F)(F)CC2)CC1` [Example 612, Cis (R)-1-{1-[4-(4,4-difluoro-piperidin-1-yl)-cyclohexyl]-1,6-dihydro-1,2,3,5,6-tetraaza-as-indacen-2-yl}-ethanol], the Ki in test [1] came to 509 nM; in test [2] it was 224 nM; in test [3], 52.9 nM; in test [4], 455 nM.

Turning to `CC(O)c1nc2cnc3[nH]ccc3c2n1C1CCN(C(=O)N(C)C)CC1` (racemic) [Example 528, 4-[2-(1-Hydroxy-ethyl)-6H-1,3,5,6-tetraaza-as-indacen-1-yl]-piperidine-1-carboxylic acid dimethylamide], the Ki in test [1] turned out to be 187 nM; in test [2], 1410 nM; in test [3] it was 156 nM; in test [4], 396 nM.

Take `c1cc2c(ncc3nc(C4CC4)n(C4CCNCC4)c32)[nH]1` [Example 298, 2-Cyclopropyl-1-piperidin-4-yl-1,6-dihydro-1,3,5,6-tetraaza-as-indacene]: the inhibition constant Ki in test [1] was determined as 231 nM; in test [2], 1290 nM; in test [3], 27.8 nM; in test [4] it was 367 nM.

In the case of `Cc1nc2cnc3[nH]ccc3c2n1C1CCC(F)(F)CC1` [Example 114, 1-(4,4-Difluoro-cyclohexyl)-2-methyl-1,6-dihydro-1,2,3,5,6-tetraaza-as-indacene], the Ki turned out to be 17 nM in test [1], 16.7 nM in test [2], 9.74 nM in test [3] and 28.7 nM in test [4].

As for `Cc1nc2cnc3[nH]ccc3c2n1C1(C)CCN(S(=O)(=O)c2cccnc2)CC1` [Example 740, 2-Methyl-1-[4-methyl-1-(pyridine-3-sulfonyl)-piperidinyl-4-yl]-1,6-dihydro-1,3,5,6-tetraaza-as-indacene], the Ki is 404 nM in test [1], 296 nM in test [2], 21.7 nM in test [3] and 97.7 nM in test [4].

Turning to `OCc1nc2cnc3[nH]ccc3c2n1C1CCN(CC(F)(F)F)CC1` [Example 761, {1-[1-(2,2,2-Trifluoro-ethyl)-piperidin-4-yl]-1,6-dihydro-1,3,5,6-tetraaza-as-indacen-2-yl}-methanol], the Ki was 22.6 nM in test [1], 10 nM in test [2], 1.59 nM in test [3] and 8.5 nM in test [4].

With `CC1CN(Cc2cncnc2)CCC1n1cnc2cnc3[nH]ccc3c21` (racemic) [Example 343, 1-(3-Methyl-1-pyrimidin-5-ylmethyl-piperidin-4-yl)-1,6-dihydro-1,3,5,6-tetraaza-as-indacene], the Ki in test [1] came to 3.2 nM; in test [2], 346 nM; in test [3], 5.71 nM; in test [4] it was 14 nM.

Turning to “(1-Cyclohexyl-1,6-dihydro-1,2,3,5,6-tetraaza-as-indacen-2-yl)-methanol-d11 [Example 674]”, the inhibition constant Ki worked out at 10.5 nM in test [1], 1.87 nM in test [2], 1.13 nM in test [3] and 7.11 nM in test [4].

With `O=S1(=O)CCCN1Cc1nc2cnc3[nH]ccc3c2n1C1CCCCC1` [Example 696, 1-Cyclohyl-2-(1,1-dioxo-1,1,6-isothiazolidin-2-ylmethyl)-1,6-dihydro-1,2,3,5,6-tetraaza-as-indacene], the Ki amounted to 57.5 nM in test [1], 49.6 nM in test [2], 13.6 nM in test [3] and 66.8 nM in test [4].

For `N#CCCN1CCC(n2c(CCC3CC3)nc3cnc4[nH]ccc4c32)CC1` [Example 408, 3-{4-[2-(2-Cyclopropyl-ethyl)-6H-1,3,5,6-tetraaza-as-indacen-1-yl]-piperidin-1-yl}-propionitrile], the Ki in test [1] was found to be 52.4 nM; in test [2], 255 nM; in test [3] it was 15.8 nM; in test [4], 43.5 nM.

As to `Cc1nc2cnc3[nH]ccc3c2n1C1CCC(NCC(F)(F)F)C1` (racemic) [Example 626, Racemic trans [3-(2-Methyl-6H-1,2,3,5,6-tetraaza-as-indacen-1-yl)-cyclopentyl]-(2,2,2-trifluoro-ethyl)-amine], the inhibition constant Ki in test [1] was determined as 33.7 nM; in test [2] it was 9.38 nM; in test [3] it was 2.04 nM; in test [4], 6.4 nM.

On to `N#CCC(=O)N1CCCC(n2cnc3cnc4[nH]ccc4c32)CC1` (racemic) [Example 485, 3-Oxo-3-[4-(6H-1,3,5,6-tetraaza-as-indacen-1-yl)-azepan-1-yl]-propionitrile], for which the Ki is 19 nM in test [1], 6.6 nM in test [2], 1.07 nM in test [3] and 1.91 nM in test [4].

For the compound `OCc1nc2cnc3[nH]ccc3c2n1C1CCNCC1(F)F` (racemic) [Example 948, [1-(3,3-Difluoro-piperidin-4-yl)-1,6-dihydro-1,3,5,6-tetraaza-as-indacen-2-yl]-methanol], the Ki stood at 5.95 nM in test [1], 7.32 nM in test [2], 1.23 nM in test [3] and 13.6 nM in test [4].

As for `CO[C@H]1CC[C@H](n2c(CO)nc3cnc4[nH]ccc4c32)CC1` [Example 634, Trans[1-(4-Methoxy-cyclohexyl)-1,6-dihydro-1,2,3,5,6-tetraaza-as-indacen-2-yl]-methanol], the inhibition constant (Ki) in test [1] was found to be 165 nM; in test [2], 4.4 nM; in test [3], 3.8 nM; in test [4], 21.9 nM.

On to `NC1CCC(n2cnc3cnc4[nH]ccc4c32)C1` (racemic) [Example 294, 3-(6H-1,3,5,6-Tetraaza-as-indacen-1-yl)-cyclopentylamine], for which the Ki in test [1] is 151 nM; in test [2], 380 nM; in test [3] it was 37.6 nM; in test [4], 176 nM.

For orientation: Ki means a dissociation constant, usually derived from enzyme kinetics or from competition with a known ligand.
